Source: US12077503B2, “Substituted cyclic amides and their use as herbicides” (FMC CORPORATION, priority 2015, dated 2024)

Assays:
Type in all cases: in vivo
[1] = test system: Kochia (Kochia scoparia); experiment: Test A preemergence; details: Bassia scoparia, pre-emergence, 240 h, read-out: Plant response rating, Kochia
In short: (§1)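 In a loam soil and sand blend, planted seeds got a preemergence directed soil spray, and young plants at the one- to two-leaf stage, 2–10 cm high, got a postemergence application; ~10 d greenhouse hold; injury rated visually, 0 = none, 100 = complete control.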

[2] = test system: barnyardgrass (Echinochloa crus-galli); experiment: Test A preemergence; details: Echinochloa crus-galli, pre-emergence, 240 h, read-out: Plant response rating, Barnyardgrass
In short: as §1

[3] = test system: giant foxtail (Setaria faberii); experiment: Test A preemergence; details: Setaria faberi, pre-emergence, 240 h, read-out: Plant response rating, Foxtail, Giant
In short: as §1

[4] = test system: pigweed (Amaranthus retroflexus); experiment: Test A preemergence; details: Amaranthus retroflexus, pre-emergence, 240 h, read-out: Plant response rating, Pigweed
[5] = test system: ragweed (common ragweed, Ambrosia elatior); experiment: Test A preemergence; details: Ambrosia artemisiifolia, pre-emergence, 240 h, read-out: Plant response rating, Ragweed
In short: as §1

[6] = test system: ryegrass, Italian (Italian ryegrass, Lolium multiflorum); experiment: Test A preemergence; details: Lolium multiflorum, pre-emergence, 240 h, read-out: Plant response rating, Ryegrass, Italian
In short: as §1

[7] = test system: Galium (catchweed bedstraw, Galium aparine); experiment: Test A postemergence; details: Galium, post-emergence, 240 h
In short: as §1

[8] = test system: Kochia (Kochia scoparia); experiment: Test A postemergence; details: Bassia scoparia, post-emergence, 240 h
In short: as §1

[9] = test system: barnyardgrass (Echinochloa crus-galli); experiment: Test A postemergence; details: Echinochloa crus-galli, post-emergence, 240 h
In short: as §1

[10] = test system: blackgrass (Alopecurus myosuroides); experiment: Test A postemergence; details: Alopecurus myosuroides, post-emergence, 240 h
In short: as §1

[11] = test system: corn (Zea mays); experiment: Test A postemergence; details: Zea mays, post-emergence, 240 h
In short: as §1

[12] = test system: giant foxtail (Setaria faberii); experiment: Test A postemergence; details: Setaria faberi, post-emergence, 240 h
In short: as §1

[13] = test system: pigweed (Amaranthus retroflexus); experiment: Test A postemergence; details: Amaranthus retroflexus, post-emergence, 240 h
In short: as §1

[14] = test system: ragweed (common ragweed, Ambrosia elatior); experiment: Test A postemergence; details: Ambrosia artemisiifolia, post-emergence, 240 h
In short: as §1

[15] = test system: ryegrass, Italian (Italian ryegrass, Lolium multiflorum); experiment: Test A postemergence; details: Lolium multiflorum, post-emergence, 240 h
In short: as §1

[16] = test system: wheat (Triticum aestivum); experiment: Test A postemergence; details: Triticum aestivum, post-emergence, 240 h
In short: as §1

[17] = 125 g ai/ha, preemergence, visual rating after approx. 10 d, 0 to 100 scale where 0 is no effect and 100 is complete control
[18] = Preemergence, 31 g ai/ha, 0 to 100 scale (0 no effect, 100 complete control)

O=C(Nc1cccc(F)c1F)[C@H]1C(=O)N(O)CC[C@@H]1c1ccc(F)cc1 [Compound 805]
0%: pest or weed control at 125 g/ha [1, 17] | pest or weed control at 31 g/ha [1, 18] | pest or weed control at 125 g/ha [2, 17] | pest or weed control at 31 g/ha [2, 18] | pest or weed control at 125 g/ha [3, 17] | pest or weed control at 31 g/ha [3, 18] | pest or weed control at 125 g/ha [4, 17] | pest or weed control at 31 g/ha [4, 18] | pest or weed control at 125 g/ha [5, 17] | pest or weed control at 31 g/ha [5, 18] | pest or weed control at 125 g/ha [6, 17] | pest or weed control at 31 g/ha [6, 18] | pest or weed control at 125 g/ha ([7]; 125 g ai/ha, postemergence, visual injury rating after approximately 10 d, read-out: Galium plant response rating (0 to 100 scale, 0 no effect, 100 complete control)) | pest or weed control at 31 g/ha ([7]; Postemergence, 31 g ai/ha, visual injury after approx. 10 d, 0 to 100 scale, 0 no effect, 100 complete control, read-out: Plant response rating, Galium) | pest or weed control at 125 g/ha ([8]; 125 g ai/ha, postemergence, visual injury rating after approximately 10 d, read-out: Kochia plant response rating (0 to 100 scale, 0 no effect, 100 complete control)) | pest or weed control at 31 g/ha ([8]; Postemergence, 31 g ai/ha, visual injury after approx. 10 d, 0 to 100 scale, 0 no effect, 100 complete control, read-out: Plant response rating, Kochia) | pest or weed control at 125 g/ha ([9]; 125 g ai/ha, postemergence, visual injury rating after approximately 10 d, read-out: Barnyardgrass plant response rating (0 to 100 scale, 0 no effect, 100 complete control)) | pest or weed control at 31 g/ha ([9]; Postemergence, 31 g ai/ha, visual injury after approx. 10 d, 0 to 100 scale, 0 no effect, 100 complete control, read-out: Plant response rating, Barnyardgrass) | pest or weed control at 125 g/ha ([10]; 125 g ai/ha, postemergence, visual injury rating after approximately 10 d, read-out: Blackgrass plant response rating (0 to 100 scale, 0 no effect, 100 complete control)) | pest or weed control at 31 g/ha ([10]; Postemergence, 31 g ai/ha, visual injury after approx. 10 d, 0 to 100 scale, 0 no effect, 100 complete control, read-out: Plant response rating, Blackgrass) | plant injury at 125 g/ha ([11]; 125 g ai/ha, postemergence, visual injury rating after approximately 10 d, read-out: Corn plant response rating (0 to 100 scale, 0 no effect, 100 complete control)) | Corn plant response rating (crop injury, 0 = no effect, 100 = complete kill) at 31 g/ha ([11]; Postemergence, 31 g ai/ha, visual injury after approx. 10 d, 0 to 100 scale, 0 no effect, 100 complete control) | pest or weed control at 125 g/ha ([12]; 125 g ai/ha, postemergence, visual injury rating after approximately 10 d, read-out: Foxtail, Giant plant response rating (0 to 100 scale, 0 no effect, 100 complete control)) | pest or weed control at 31 g/ha ([12]; Postemergence, 31 g ai/ha, visual injury after approx. 10 d, 0 to 100 scale, 0 no effect, 100 complete control, read-out: Plant response rating, Foxtail, Giant) | pest or weed control at 125 g/ha ([13]; 125 g ai/ha, postemergence, visual injury rating after approximately 10 d, read-out: Pigweed plant response rating (0 to 100 scale, 0 no effect, 100 complete control)) | pest or weed control at 31 g/ha ([13]; Postemergence, 31 g ai/ha, visual injury after approx. 10 d, 0 to 100 scale, 0 no effect, 100 complete control, read-out: Plant response rating, Pigweed) | pest or weed control at 125 g/ha ([14]; 125 g ai/ha, postemergence, visual injury rating after approximately 10 d, read-out: Ragweed plant response rating (0 to 100 scale, 0 no effect, 100 complete control)) | pest or weed control at 31 g/ha ([14]; Postemergence, 31 g ai/ha, visual injury after approx. 10 d, 0 to 100 scale, 0 no effect, 100 complete control, read-out: Plant response rating, Ragweed) | pest or weed control at 125 g/ha ([15]; 125 g ai/ha, postemergence, visual injury rating after approximately 10 d, read-out: Ryegrass, Italian plant response rating (0 to 100 scale, 0 no effect, 100 complete control)) | pest or weed control at 31 g/ha ([15]; Postemergence, 31 g ai/ha, visual injury after approx. 10 d, 0 to 100 scale, 0 no effect, 100 complete control, read-out: Plant response rating, Ryegrass, Italian) | plant injury at 125 g/ha ([16]; 125 g ai/ha, postemergence, visual injury rating after approximately 10 d, read-out: Wheat plant response rating (0 to 100 scale, 0 no effect, 100 complete control)) | plant injury at 31 g/ha ([16]; Postemergence, 31 g ai/ha, visual injury after approx. 10 d, 0 to 100 scale, 0 no effect, 100 complete control, read-out: Plant response rating, Wheat)
